# The source made the active and inactive calls. The calls are words filed in the database; no cut-off is given here.
# Key:
# [1] = Cmax in in ovariectomized rhesus monkey at 5 mg/kg/day, po; format: ADME, organism-based, Macaca mulatta; parameters: dose 5 mg/kg/day, route oral; conditions: female, in vivo
# [2] = Half life in rat at 2 mg/kg, iv; format: ADME, organism-based; parameters: dose 2 mg/kg, route intravenous; conditions: in vivo
# [3] = Volume of distribution at steady state in cynomolgus monkey at 2 mg/kg, iv; format: ADME, organism-based, Macaca fascicularis; parameters: dose 2 mg/kg, route intravenous; conditions: in vivo, read-out: Vdss
# [4] = Cmax in rat at 2 mg/kg, po; format: ADME, organism-based; parameters: dose 2 mg/kg, route oral; conditions: in vivo
# [5] = Half life in cynomolgus monkey at 2 mg/kg, iv; format: ADME, organism-based, Macaca fascicularis; parameters: dose 2 mg/kg, route intravenous; conditions: in vivo
# [6] = Clearance in cynomolgus monkey at 2 mg/kg, iv; format: ADME, organism-based, Macaca fascicularis; parameters: dose 2 mg/kg, route intravenous; conditions: in vivo
# [7] = system: Rhesus monkey; assay: Induction of early menstruation in ovariectomized rhesus monkey menses induction model at 5 mg/kg/day, po; format: functional, organism-based; conditions: Macaca mulatta
# [8] = Fraction unbound in human plasma; format: ADME, cell-free
# [9] = Half life in rat at 2 mg/kg, po; format: ADME, organism-based; parameters: dose 2 mg/kg, route oral; conditions: in vivo
# [10] = system: Plasma; assay: Average drug concentration in ovariectomized rhesus monkey plasma at 5 mg/kg/day, po; format: ADME, organism-based, Macaca mulatta; parameters: route oral; conditions: in vivo
# [11] = Oral bioavailability in rat at 2 mg/kg; format: ADME, organism-based; conditions: in vivo
# [12] = molecular target: T1, Mineralocorticoid receptor (Homo sapiens) (UniProt P08235); assay: Antagonist activity at mineralocorticoid receptor at 1 uM by cellular reporter gene assay; format: functional; parameters: scale not given: the % may be the effect or the level left
# T1 sequence (whole entry): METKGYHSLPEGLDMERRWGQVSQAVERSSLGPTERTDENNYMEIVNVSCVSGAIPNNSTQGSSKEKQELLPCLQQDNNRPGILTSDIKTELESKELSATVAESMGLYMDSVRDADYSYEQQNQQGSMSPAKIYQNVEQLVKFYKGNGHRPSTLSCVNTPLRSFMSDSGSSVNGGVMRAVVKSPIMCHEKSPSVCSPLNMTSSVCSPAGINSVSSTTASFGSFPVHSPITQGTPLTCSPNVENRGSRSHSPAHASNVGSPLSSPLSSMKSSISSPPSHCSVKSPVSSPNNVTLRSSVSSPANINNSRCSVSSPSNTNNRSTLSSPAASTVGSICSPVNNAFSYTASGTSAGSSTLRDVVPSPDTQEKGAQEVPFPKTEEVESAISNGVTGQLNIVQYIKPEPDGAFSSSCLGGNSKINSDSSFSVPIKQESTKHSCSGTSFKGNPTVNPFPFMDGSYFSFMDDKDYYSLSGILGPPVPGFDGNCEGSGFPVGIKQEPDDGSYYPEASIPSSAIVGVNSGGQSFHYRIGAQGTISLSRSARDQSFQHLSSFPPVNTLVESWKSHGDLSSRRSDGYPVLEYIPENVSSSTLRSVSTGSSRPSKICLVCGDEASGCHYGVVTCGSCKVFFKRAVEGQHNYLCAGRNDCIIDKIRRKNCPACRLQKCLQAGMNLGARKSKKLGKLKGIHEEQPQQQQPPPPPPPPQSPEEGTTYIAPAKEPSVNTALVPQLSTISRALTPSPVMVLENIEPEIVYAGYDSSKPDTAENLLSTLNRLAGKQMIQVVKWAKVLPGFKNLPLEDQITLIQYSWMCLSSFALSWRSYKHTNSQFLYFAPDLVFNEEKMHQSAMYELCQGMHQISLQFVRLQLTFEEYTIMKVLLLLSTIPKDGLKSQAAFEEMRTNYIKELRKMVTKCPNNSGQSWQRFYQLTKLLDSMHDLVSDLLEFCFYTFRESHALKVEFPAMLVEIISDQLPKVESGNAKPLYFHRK
# [13] = AUC (0 to infinity) in cynomolgus monkey at 2 mg/kg, iv; format: ADME, organism-based, Macaca fascicularis; parameters: time infinity, dose 2 mg/kg, route intravenous; conditions: plasma
# [14] = Half life in cynomolgus monkey at 2 mg/kg, po; format: ADME, organism-based, Macaca fascicularis; parameters: dose 2 mg/kg, route oral; conditions: in vivo
# [15] = AUC (0 to infinity) in rat at 2 mg/kg, po; format: ADME, organism-based; parameters: time infinity, dose 2 mg/kg, route oral; conditions: plasma
# [16] = system: Salmonella typhimurium; assay: Mutagenicity in Salmonella typhimurium in presence of liver S9 fraction by non-GLP Ames test; format: toxicity, organism-based; conditions: salmonella enterica subsp. enterica serovar typhimurium
# [17] = molecular target: T2, Estrogen receptor (Homo sapiens) (UniProt P03372); assay: (§1) Antagonist activity at estrogen receptor by cellular reporter gene assay; format: functional
# T2 sequence (whole entry): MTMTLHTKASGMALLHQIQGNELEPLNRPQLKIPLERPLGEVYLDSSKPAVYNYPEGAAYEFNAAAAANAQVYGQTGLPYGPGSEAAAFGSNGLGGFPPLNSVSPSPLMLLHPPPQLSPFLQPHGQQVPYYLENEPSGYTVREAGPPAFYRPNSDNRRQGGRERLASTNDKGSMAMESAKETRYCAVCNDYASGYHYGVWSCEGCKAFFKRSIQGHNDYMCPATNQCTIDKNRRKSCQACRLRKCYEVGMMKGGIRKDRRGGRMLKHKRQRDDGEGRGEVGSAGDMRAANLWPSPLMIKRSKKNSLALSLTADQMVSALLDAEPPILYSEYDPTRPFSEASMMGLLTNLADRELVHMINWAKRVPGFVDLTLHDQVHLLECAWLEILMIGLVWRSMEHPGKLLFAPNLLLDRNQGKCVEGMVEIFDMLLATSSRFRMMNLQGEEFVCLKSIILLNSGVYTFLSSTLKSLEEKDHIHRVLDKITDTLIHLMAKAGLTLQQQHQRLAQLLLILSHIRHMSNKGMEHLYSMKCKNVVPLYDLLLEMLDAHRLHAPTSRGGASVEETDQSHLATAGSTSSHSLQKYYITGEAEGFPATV
# [18] = molecular target: T3, Glucocorticoid receptor (Homo sapiens, UniProt P04150); assay: Agonist activity at glucocorticoid receptor by cellular reporter gene assay
# T3 sequence (P04150 whole entry): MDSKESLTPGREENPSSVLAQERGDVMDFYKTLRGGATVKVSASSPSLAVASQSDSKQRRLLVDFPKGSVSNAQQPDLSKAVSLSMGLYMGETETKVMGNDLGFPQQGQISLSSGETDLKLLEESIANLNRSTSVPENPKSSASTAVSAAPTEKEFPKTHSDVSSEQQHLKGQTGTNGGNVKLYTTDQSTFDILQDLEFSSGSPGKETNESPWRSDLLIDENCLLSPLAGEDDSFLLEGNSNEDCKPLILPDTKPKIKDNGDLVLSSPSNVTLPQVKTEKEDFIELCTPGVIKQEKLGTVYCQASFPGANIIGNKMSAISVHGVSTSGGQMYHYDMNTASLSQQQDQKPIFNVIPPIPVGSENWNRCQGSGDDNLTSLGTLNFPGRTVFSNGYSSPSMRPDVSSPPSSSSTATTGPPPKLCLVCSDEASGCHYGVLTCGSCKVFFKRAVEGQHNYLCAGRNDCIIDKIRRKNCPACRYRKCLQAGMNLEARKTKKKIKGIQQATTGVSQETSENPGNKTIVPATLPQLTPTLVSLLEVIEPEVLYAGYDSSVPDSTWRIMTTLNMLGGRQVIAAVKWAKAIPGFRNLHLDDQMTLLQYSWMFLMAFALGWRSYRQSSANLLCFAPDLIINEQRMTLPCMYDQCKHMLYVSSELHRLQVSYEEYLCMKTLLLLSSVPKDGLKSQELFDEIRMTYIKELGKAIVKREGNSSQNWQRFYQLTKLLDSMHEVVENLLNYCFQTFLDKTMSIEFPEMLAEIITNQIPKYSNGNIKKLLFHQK
# [19] = molecular target: T3, Glucocorticoid receptor; assay: Antagonist activity at glucocorticoid receptor by cellular reporter gene assay; format: functional
# [20] = molecular target: T4, Estrogen receptor (Homo sapiens, UniProt P03372); assay: as §1; format: functional
# T4 sequence (P03372 whole entry): T2 sequence (whole entry)
SMILES,Cmax [1],half-life [2],Vd [3],Cmax [4],half-life [5],clearance [6],Activity [7],fraction unbound [8],half-life [9],Cave [10],bioavailability [11],Activity [12],AUC(0-inf) [13],half-life [14],AUC(0-inf) [15],Activity [16],Activity [17],IC50 [18],IC50 [19],IC50 [20]
CCS(=O)(=O)Nc1cc(F)c(-c2ccc(C#N)n2C)c(F)c1,8.8 µM,2 h,0.3 L/kg,2800 ng/mL,2.8 h,2 mL/min/kg,Active,0.003,2.3 h,3.6 µM,98.5%,60%,18000 ng·h/mL,2.7 h,15200 ng·h/mL,Non-toxic,inactive,> 10 µM,–,–
COC[C@]1(OC)CC[C@H]2[C@@H]3CCC4=CC(=O)CCC4=C3[C@@H](c3ccc(/C=N/O)cc3)C[C@@]21C [ASOPRISNIL],–,–,–,–,–,–,–,–,–,–,–,–,–,–,–,–,–,–,0.12 µM,2 µM

# Reference: ChEMBL document CHEMBL2203135, “Novel progesterone receptor modulators: 4-aryl-phenylsulfonamides” (Bioorg Med Chem Lett, 2012)
